Measurements published in patent publication US20220288045A1, “Stable Pharmaceutical Composition Comprising Esomeprazole And Sodium Bicarbonate” (Chong Kun Dang Pharmaceutical Corp., priority 2019, published 2022).
Read-outs that look alike come from different tables or passages of the source. Each block holds one molecule with its values, some of them ahead of it.

Tests used:
[1] = Stability test of esomeprazole and omeprazole according to pH (HPLC content in buffer solution); type: physicochemical; details: in % (unit assumed)
Experimental: After adding each 2 mL of 20 mg/mL strength of esomeprazole and omeprazole solutions to 100 mL of buffer solution, the content according to pH was analyzed, and the analysis method is as follows. <Analysis Method> A) Detector: Ultraviolet visible light absorption spectrometer (measurement wavelength: 280 nm) B) Column: Inertsil C8-3 (4.6×150 mm, 5 μm) or equivalent column C) Injection amount: 20 μl D) Flow rate: 1.5 mL/min E) Column temperature: constant temperature around 40° C. F) Sample temperature: constant temperature around 10° C.

[2] = aqueous solutions with 3 or less of a pH value; cited from earlier work
[3] = for pH: 200 mL artificial gastric juice + 200 mL purified water, 37° C.
Description: To set the content of sodium bicarbonate, the drug release conditions and gastric juice conditions were set as follows.

- content according to pH ([1]; pH4.0, 5 min): 64.1
- content according to pH ([1]; pH4.0, 10 min): 31.0
- content according to pH ([1]; pH4.0, 15 min): 15.9
- content according to pH ([1]; pH4.0, 30 min): 6.9
- content according to pH ([1]; pH4.0, 45 min): 1.7
- content according to pH ([1]; pH4.0, 60 min): 0.9
- content according to pH ([1]; pH4.0, 120 min): 0.1
- content according to pH ([1]; pH6.0, 5 min): 74.4
- content according to pH ([1]; pH6.0, 10 min): 72.8
- content according to pH ([1]; pH6.0, 15 min): 71.0
- content according to pH ([1]; pH6.0, 30 min): 68.9
- content according to pH ([1]; pH6.0, 45 min): 66.3
- content according to pH ([1]; pH6.0, 60 min): 63.6
- content according to pH ([1]; pH6.0, 120 min): 54.9
- content according to pH ([1]; pH6.8, 5 min): 95.6
- content according to pH ([1]; pH6.8, 10 min): 90.8
- content according to pH ([1]; pH6.8, 15 min): 90.5
- content according to pH ([1]; pH6.8, 30 min): 89.7
- content according to pH ([1]; pH6.8, 45 min): 88.9
- content according to pH ([1]; pH6.8, 60 min): 88.3
- content according to pH ([1]; pH6.8, 120 min): 86.2
- content according to pH ([1]; pH7.0, 5 min): 99.6
- content according to pH ([1]; pH7.0, 10 min): 99.0
- content according to pH ([1]; pH7.0, 15 min): 99.3
- content according to pH ([1]; pH7.0, 30 min): 98.9
- content according to pH ([1]; pH7.0, 45 min): 98.7
- content according to pH ([1]; pH7.0, 60 min): 98.1
- content according to pH ([1]; pH7.0, 120 min): 96.8
- content according to pH ([1]; pH7.3, 5 min): 100.1
- content according to pH ([1]; pH7.3, 10 min): 100.1
- content according to pH ([1]; pH7.3, 15 min): 100.0
- content according to pH ([1]; pH7.3, 30 min): 100.0
- content according to pH ([1]; pH7.3, 45 min): 100.0
- content according to pH ([1]; pH7.3, 60 min): 100.0
- content according to pH ([1]; pH7.3, 120 min): 99.90
- content according to pH ([1]; pH7.5, 5 min): 99.4
- content according to pH ([1]; pH7.5, 10 min): 99.3
- content according to pH ([1]; pH7.5, 15 min): 99.2
- content according to pH ([1]; pH7.5, 30 min): 99.1
- content according to pH ([1]; pH7.5, 45 min): 99.3
- content according to pH ([1]; pH7.5, 60 min): 99.1
- content according to pH ([1]; pH7.5, 120 min): 98.2
- content according to pH ([1]; pH8.0, 15 min): 101.1
- content according to pH ([1]; pH8.0, 30 min): 100.9
- content according to pH ([1]; pH8.0, 45 min): 100.7
- content according to pH ([1]; pH8.0, 60 min): 100.7
- content according to pH ([1]; pH8.0, 120 min): 100.0
SMILES: COc1ccc2nc([S@@+]([O-])Cc3ncc(C)c(OC)c3C)[nH]c2c1 [S-omeprazole, (S)-5-methoxy-24(4-methoxy-3,5-dimethyl-2-pyridinyl)-methyllsulfinyl-1H-benzimidazole]
- decomposition half-life [2]: less than 10 minutes

- amount of sodium bicarbonate that can represent neutral pH by neutralizing 200 mL of artificial gastric juice ([3]; 200 mL artificial gastric juice): at least 600 mg
- pH ([3]; Sodium bicarbonate 500 mg): 5.77
- pH ([3]; Sodium bicarbonate 600 mg): 6.51
- pH ([3]; Sodium bicarbonate 700 mg): 7.30
- pH ([3]; Sodium bicarbonate 800 mg): 7.30
- pH ([3]; Sodium bicarbonate 900 mg): 7.31
- pH ([3]; Sodium bicarbonate 1,000 mg): 7.37
- pH ([3]; Sodium bicarbonate 1,100 mg): 7.38
- pH ([3]; Sodium bicarbonate 1,200 mg): 7.38
- pH ([3]; Sodium bicarbonate 1,300 mg): 7.40
SMILES: O=C([O-])O.[Na+] [Sodium bicarbonate]
